Assays:
[1] = system: mice; assay: Hot plate assay for antinociception, subcutaneous dosing; type: in vivo, mouse; conditions: for ED50: 0.5 h, re-tested 30 min after drug administration; for ED50 / analgesic effect in the mouse hot plate assay compared to morphine: SC
Method: The hot plate assay is adapted from the procedure originally described by O'Callaghan and Holtzman (JPET, 192, 497, 1975) and is commonly used to determine the potential analgesic efficacy of opioid agonists. The antinociceptive effect of the composition(s) described herein in the hot plate is expressed in % MPE (Maximum Possible Effect).
Rats (175-250 g) or mice (20-30 g) acclimated to the vivarium for at least 48 hr prior to behavioral testing. Test drugs were administered by the subcutaneous (SC) route. Animals were placed on the hot plate, which the temperature was set at 50-56° C., depending on the in vitro potency of the compound. A cutoff time of 30-60 seconds was used depending on the temperature of the hot plate so that the paws of the animal displaying analgesia, was not damaged by the heat stimulus. The cutoff time was considered a 100% response to the thermal insult. Prior to drug treatment, each animal was tested to determine the baseline response. Thirty minutes after drug administration, animals were re-tested. Dose response experiments were performed to evaluate the potency of the test compound when various doses were administered at the point when maximal analgesia is observed.
The % MPE was calculated according to the following formula:
% MPE=[(Post drug latency−baseline latency)/(60 or 30−baseline latency)]×100
ED50 values were calculated from the mean % MPE values for each group using log dose-response curves by least-squares regression analysis.

[2] = biological target: T1, CYP2D6 (Homo sapiens, UniProt P10635); assay: Metabolic stability in human liver microsomes with/without quinidine: percent contribution of CYP2D6; type: in vitro ADME; conditions: human liver microsomes 0.25 mg/mL, test compound 1 μM, quinidine 1 μM; from intrinsic clearance without and with inhibitor
T1 construct: incubations of test compound (1 μM) with human liver microsomes (0.25 mg/mL); from tissue; host or cells: human liver microsomes
T1 sequence (P10635 whole entry): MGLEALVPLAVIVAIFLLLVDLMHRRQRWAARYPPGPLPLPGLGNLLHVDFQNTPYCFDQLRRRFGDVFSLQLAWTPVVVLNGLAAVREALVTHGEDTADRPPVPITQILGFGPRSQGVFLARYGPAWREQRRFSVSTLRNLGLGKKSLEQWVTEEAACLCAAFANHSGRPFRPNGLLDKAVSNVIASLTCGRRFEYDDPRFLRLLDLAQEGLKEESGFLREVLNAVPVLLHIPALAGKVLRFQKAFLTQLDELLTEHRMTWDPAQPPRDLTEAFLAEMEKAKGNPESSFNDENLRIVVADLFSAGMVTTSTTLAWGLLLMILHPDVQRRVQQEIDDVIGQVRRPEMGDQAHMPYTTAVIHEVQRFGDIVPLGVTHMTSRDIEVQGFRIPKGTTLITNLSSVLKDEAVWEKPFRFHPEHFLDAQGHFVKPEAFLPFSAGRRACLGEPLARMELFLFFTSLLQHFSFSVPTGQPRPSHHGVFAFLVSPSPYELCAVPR
Method: (§1) Compounds 141, 208, 246, 265, 267, 271 or 277 were analyzed to determine whether they are metabolized by CYP2D6 and/and/or CYP3A4. The studies were designed to evaluate the metabolic stability of compounds in human liver microsomes for the purpose of determining the percent contribution of CYP2D6 and CYP3A4 to their in vitro metabolism. […] Incubations are performed with or without CYP specific inhibitors. Incubations with the CYP2D6 direct inhibitor, quinidine (1 μM) quantify the percent contribution of CYP2D6 to metabolism. Incubations with the CYP3A4 metabolism-dependent inhibitor, troleandomycin (50 μM), define the percent contribution of CYP3A4. The percentage of CYP2D6 and CYP3A4 contribution is calculated using intrinsic clearance values in the absence and presence of the specific CYP inhibitor (Gibbs et al. 2006).

[3] = biological target: T2, CYP3A4 (Homo sapiens, UniProt P08684); assay: Metabolic stability in human liver microsomes with/without troleandomycin: percent contribution of CYP3A4; type: in vitro ADME; conditions: human liver microsomes 0.25 mg/mL, test compound 1 μM, troleandomycin 50 μM; from intrinsic clearance without and with inhibitor
T2 construct: incubations of test compound (1 μM) with human liver microsomes (0.25 mg/mL); from tissue; host or cells: human liver microsomes
T2 sequence (P08684 whole entry): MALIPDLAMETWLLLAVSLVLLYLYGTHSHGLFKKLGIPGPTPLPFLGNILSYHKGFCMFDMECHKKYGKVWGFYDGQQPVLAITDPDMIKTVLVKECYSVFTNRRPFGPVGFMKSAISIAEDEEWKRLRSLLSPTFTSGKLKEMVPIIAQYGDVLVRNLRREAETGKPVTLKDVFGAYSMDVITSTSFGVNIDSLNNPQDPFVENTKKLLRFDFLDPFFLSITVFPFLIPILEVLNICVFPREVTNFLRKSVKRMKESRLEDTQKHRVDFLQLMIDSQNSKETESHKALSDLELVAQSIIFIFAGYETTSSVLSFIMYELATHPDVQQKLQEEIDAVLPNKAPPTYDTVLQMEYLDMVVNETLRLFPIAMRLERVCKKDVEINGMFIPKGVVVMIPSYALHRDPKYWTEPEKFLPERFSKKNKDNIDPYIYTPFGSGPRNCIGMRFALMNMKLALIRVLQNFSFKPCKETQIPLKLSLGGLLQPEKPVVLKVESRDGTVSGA
Method: as §1

[4] = Oral availability in humans with low versus normal CYP2D6 activity; type: in vivo; conditions: human with low CYP2D6 activity compared to humans with normal CYP2D6 activity (data not shown)

Structure (SMILES) | ED50 ([1]; mouse hot plate) [mg/kg] | CYP2D6 contribution [2] [%] | CYP3A4 contribution [3] [%] | also measured
c1ccc(CNCC[C@@]2(c3ccccn3)CCOC3(CCCC3)C2)cc1 [Compound 28] | 1.2 | – | – | analgesic effect in the mouse hot plate assay compared to morphine [1]: more robust analgesic effect
Fc1ccc([C@]2(CCNCc3ccccc3)CCOC3(CCCC3)C2)cc1 [Compound 81, benzyl({2-[(9R)-9-(4-fluorophenyl)-6-oxaspiro[4.5]decan-9-yl]ethyl})amine] | – | – | – | % MPE ([1]; mouse hot plate, at 10 mg/kg SC): 100% at 10
Cc1cccc(CNCC[C@@]2(c3ccc(F)cc3)CCOC3(CCCC3)C2)c1 [Compound 122, {2-[(9R)-9-(4-fluorophenyl)-6-oxaspiro[4.5]decan-9-yl]ethyl}[(3-methylphenyl)methyl]amine] | 1.1 | – | – | analgesic effect in the mouse hot plate assay compared to morphine [1]: more robust analgesic effect
COc1ccsc1CNCC[C@@]1(c2ccccn2)CCOC2(CCCC2)C1 [Compound 140, [(3-methoxythiophen-2-yl)methyl]({2-[(9R)-9-(pyridin-2-yl)-6-oxaspiro[4.5]decan-9-yl]ethyl})amine] | – | 50 | 50 | oral availability [4]: substantially higher oral availability
Cc1ccc(CNCC[C@@]2(c3ccc(F)cc3)CCOC3(CCCC3)C2)s1 [Compound 145] | 5.9 | – | – | –
Brc1csc(CNCC[C@@]2(c3ccccn3)CCOC3(CCCC3)C2)c1 [Compound 208] | – | 3 | 17 | –
Cc1cccc(CNCC[C@@]2(c3ccccn3)CCOC3(CCCC3)C2)c1 [Compound 246] | – | 80 | 25 | –
Fc1cncc(CNCC[C@@]2(c3ccccn3)CCOC3(CCCC3)C2)c1 [Compound 265] | – | – | >50 | –
Clc1cncc(CNCC[C@@]2(c3ccccn3)CCOC3(CCCC3)C2)c1 [Compound 267] | – | 8 | 55 | –
FC(F)(F)c1cncc(CNCC[C@@]2(c3ccccn3)CCOC3(CCCC3)C2)c1 [Compound 271] | – | 3 | 45 | –
FC(F)(F)c1ccnc(CNCC[C@@]2(c3ccccn3)CCOC3(CCCC3)C2)c1 [Compound 277] | – | >20 | >50 | –
CN1CC[C@]23c4c5ccc(O)c4O[C@H]2[C@@H](O)C=C[C@H]3[C@H]1C5 [Morphine, reference compound] | 3.8 | – | – | efficacy in the mouse hot plate ([1]; at a dose of 10 mg/kg SC): full efficacy
